Data taken from PubChem BioAssay (NCI).
Values joined by “and” are separate entries in the source; they are usually repeats but may differ in a detail not shown here. Equal entries are not always repeated.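 Growth conditions: 96-well plates. Treatment: test compound, 48 hours, 5 concentrations. Analysis: linear interpolation between bracketing concentrations; unreached endpoints set to highest concentration. The concentration for 50% growth inhibition is given as GI50. The concentration for full growth arrest is given as TGI.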

Assays:
Experiment in all cases: growth of human tumour cells (NCI), 48 h
[1] = test system: A498 renal
[2] = test system: ACHN renal
[3] = test system: COLO 205 colon
[4] = test system: HCT-116 colon
[5] = test system: IGROV1 ovarian
[6] = test system: SK-MEL-5 melanoma
[7] = test system: UACC-257 melanoma
[8] = test system: UO-31 renal
[9] = test system: EKVX NSCLC
[10] = test system: RXF 393 renal

Compound | GI50 [1] | TGI [1] | GI50 [2] | TGI [2] | GI50 [3] | TGI [3] | GI50 [4] | TGI [4] | GI50 [5] | TGI [5] | GI50 [6] | TGI [6] | GI50 [7] | TGI [7] | GI50 [8] | TGI [8] | TGI [9] | TGI [10] | GI50 [10]
O=[N+]([O-])c1cccc([I+]c2ccccc2)c1 | 10.4 µM | 28.4 µM | 19.6 µM | > 100 µM | 10.1 µM | 33.6 µM | 7.05 µM | 24.2 µM | 5.29 µM | 27 µM | 2.27 µM | 10.8 µM | 12.1 µM | 28 µM | 8.71 µM | 85.5 µM |  |  | 
O=c1[nH]c(-c2ccc([N+](=O)[O-])cc2)nc2ccc(Cl)cc12 |  |  |  | > 100 µM |  | > 100 µM |  | > 100 µM |  | > 100 µM |  | > 100 µM |  | > 100 µM |  | > 100 µM | > 100 µM | > 100 µM | 
C1C[S][Ge]2([S]CCS1)[S]CCSCC[S]2 | > 100 µM | > 100 µM | > 100 µM | > 100 µM | > 100 µM | > 100 µM | > 100 µM | > 100 µM | > 100 µM | > 100 µM |  |  |  |  | > 100 µM | > 100 µM |  |  | 
Cc1cc(N(CCC#N)CCC#N)ccc1CC1N=C(c2ccccc2)OC1=O (stereo not given) |  | > 100 µM |  | > 100 µM |  | > 100 µM |  | > 100 µM |  | > 100 µM |  | > 100 µM |  | > 100 µM |  | > 100 µM | > 100 µM |  | 
C=CNC(=S)n1nc(-c2ccccc2NC(=O)C(F)(F)F)c(=O)n(C(=S)NC=C)c1=S |  |  |  | > 100 µM |  |  |  | > 100 µM |  | > 100 µM |  | 35.5 µM |  |  |  | 73.6 µM | 69.3 µM | > 100 µM | 
CSc1nc(SC)c2c(C)cn(C3OC(C)C(O)C(O)C3O)c2n1 (stereo not given) |  | 74.4 µM |  | > 100 µM |  | > 100 µM |  | > 100 µM |  | > 100 µM |  | > 100 µM |  |  |  | > 100 µM | > 100 µM | > 100 µM | 
Cc1cc2c(C)nn(Cc3ccccc3Cl)c2c(C#N)c1C |  |  |  | > 100 µM |  | > 100 µM |  | > 100 µM |  | > 100 µM |  |  |  | > 100 µM |  | > 100 µM | > 100 µM | > 100 µM | 
O=C(CC(=O)N1N=C(c2ccccc2)C(N=Nc2ccccc2Cl)C1=O)Nc1ccccc1Cl (stereo not given) |  |  |  | 99.6 µM |  | > 100 µM |  | > 100 µM |  | > 100 µM |  | 52.5 µM |  | > 100 µM |  | > 100 µM | > 100 µM |  | 
CN(CC1NCCCC1O)C12CC3CC(CC(C3)C1)C2 (stereo not given) |  | > 100 µM |  | > 100 µM |  | > 100 µM |  |  |  | > 100 µM |  |  |  | > 100 µM |  | > 100 µM | > 100 µM |  | 
C=CCn1c(=O)c(C(=O)NC(=O)OCC)cn(C2CCCCC2)c1=O |  | > 100 µM |  | > 100 µM |  | > 100 µM |  | > 100 µM |  | > 100 µM |  | > 100 µM |  | > 100 µM |  | > 100 µM | > 100 µM |  | 
C=C1CCC2(C(C)=O)COC1(C)O2 (stereo not given) |  |  |  | > 100 µM |  | > 100 µM |  | > 100 µM |  | > 100 µM |  | > 100 µM |  | > 100 µM |  | > 100 µM | > 100 µM | > 10 µM | 
COC1C(C)OC(OC2CC(C)(O)Cc3cc4c(c(O)c32)C(=O)c2c(O)cc3c(c2C4=O)OC2OC3(C)C(O)C(N(C)C)C2O)C(OC)C1(C)OC (stereo not given) |  |  | 0.216 µM |  |  |  | 0.00273 µM and 0.0132 µM |  |  | 3.47 µM and 5.05 µM |  |  | 0.0784 µM and 0.0388 µM |  |  |  | 1.21 µM and 0.304 µM |  | 0.0548 µM and 0.0191 µM
COc1cc2oc(-c3ccc(O)cc3)cc(=O)c2c(OC)c1O |  |  |  | > 100 µM |  | > 100 µM |  | > 100 µM |  | > 100 µM |  | > 100 µM |  | > 100 µM |  | > 100 µM | > 100 µM | > 100 µM | 
CC(O)c1ccc(C(O)/C(=N\NC(=O)c2ccncc2)c2nc3ccc([N+](=O)[O-])cc3[nH]c2=O)cc1 (stereo not given) |  |  |  | > 100 µM |  | > 100 µM |  | > 100 µM |  | > 100 µM |  | > 100 µM |  | > 100 µM |  | > 100 µM |  | > 100 µM | 
COC(=O)[C@H](C)[C@@H]1CC[C@](C)(CCC2=C(C)CCCC2(C)C)OO1 |  |  |  | > 25 µM |  | > 25 µM |  | > 25 µM |  | > 25 µM |  | > 25 µM |  | > 25 µM |  | > 25 µM | > 25 µM | > 25 µM | 
Cc1cc(C)c(C(=O)/C(=C/c2ccccc2)c2ccccc2)c(C)c1 |  |  |  | > 100 µM |  | > 100 µM |  | > 100 µM |  | > 100 µM |  | > 100 µM |  | > 100 µM |  | > 100 µM | > 100 µM | > 100 µM | 
COc1ccc2c(c1)CC1N(C)CCC13CCCCC23 (stereo not given) |  |  |  | > 100 µM |  | > 100 µM |  | > 100 µM |  | > 100 µM |  | > 100 µM |  | > 100 µM |  | > 100 µM | > 100 µM | > 100 µM | 
CC(C)OC(=O)c1cccnc1/C=N/O |  | > 100 µM |  | > 100 µM |  | > 100 µM |  | > 100 µM |  | > 100 µM |  | > 100 µM |  | > 100 µM |  | > 100 µM | > 100 µM |  | 
O=C(O)c1ccccc1C1c2ccc(Cl)cc2Oc2cc(Cl)ccc21 |  |  |  | > 100 µM |  | > 100 µM |  |  |  | > 100 µM |  | > 100 µM |  | > 100 µM |  | > 100 µM | > 100 µM | > 100 µM | 
